Assay results published in article PMC12406192, “Sustainable Joullié–Ugi and Continuous Flow Implementation Led to Novel Captopril-Inspired Broad-Spectrum Metallo-β-Lactamase Inhibitors” (Journal of Medicinal Chemistry, 2025).
≈ marks a conversion by molar mass, not a printed value. Marks after values point to notes of the source that are not given here.

Columns and labels:
[1] = Chemical stability of the compounds; format: physicochemical
NDM-1 [2] = target: T1, NDM-1 (Klebsiella pneumoniae, UniProt C7C422); test: Kinetic fluorescence-based in vitro assay with fluorocillin substrate (IC50); format: biochemical; conditions: 30 min preincubation
T1 construct: made in house; host or cells: E. coli
T1 sequence (C7C422 29-270 limits assumed): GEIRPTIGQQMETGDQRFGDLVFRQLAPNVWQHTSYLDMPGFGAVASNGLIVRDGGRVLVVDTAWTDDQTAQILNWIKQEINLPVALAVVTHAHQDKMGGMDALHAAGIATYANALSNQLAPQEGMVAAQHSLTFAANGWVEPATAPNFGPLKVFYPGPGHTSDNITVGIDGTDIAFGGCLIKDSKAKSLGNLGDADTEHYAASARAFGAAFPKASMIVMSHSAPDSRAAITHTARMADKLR
Procedure: (§1) IC50 values were determined in a kinetic fluorescence-based in vitro assay as described previously. All compounds were preincubated with the recombinant protein for 30 min before addition of the fluorogenic substrate fluorocillin. , The inhibitory activity was also determined (expressed as the percentage of inhibition in the presence of 50 μM compound) using a spectrophotometric assay in which the hydrolysis of imipenem (the reporter substrate) was monitored (see Section for details).
(§2) The inhibitory activity of the compounds was determined using enzyme assays with recombinant NDM-1, VIM-1, VIM-2, IMP-1, and IMP-7. These enzymes were produced in E. coli and purified as previously described. , The fluorogenic substrate fluorocillin was synthesized according to the procedure described by Rukavishnikov et al. The assays were performed in 96-well format using black polystyrene plates (Corning, Corning, NY) at room temperature, and the measurements were carried out on the Tecan spectrophotometer Infinite F200 PRO (Tecan, Männedorf, Switzerland). The protein stock solutions were diluted in assay buffer (HEPES 50 mM, pH 7.5 containing 0.01%Triton X-100, buffer HX) to reach final concentrations of VIM-1–4 nM, IMP-7–0.1 nM; NDM-1–3 nM. Subsequently, 89 μL of the protein solution was mixed with 1 μL of the inhibitor diluted in DMSO (final DMSO concentration 1% at final assay volume of 100 μL) and incubated for 30 min. […] Negative controls were measured in the absence of enzyme (89 μL of assay buffer), whereas the positive controls were measured in the presence of enzyme and in the absence of inhibitors (1 μL of DMSO). Each measurement was performed in triplicate in three independent experiments. IC50 values were calculated using data obtained from measurements with at least eight different inhibitor concentrations, applying a sigmoidal dose–response (variable slope with four parameters) equation using GraphPad Prism 5 (GraphPad Software, La Jolla, CA) software. […] All assays were performed in at least in triplicate.

[3] = system: E. coli SI-M001 (bla NDM‑1 +); test: Imipenem MIC, broth microdilution, with fixed concentration of compound; format: cell-based
Procedure: (§3) In vitro antimicrobial susceptibility testing was performed according to established standards. […]. The strains used in the study were described elsewhere.

[4] = system: K. pneumoniae T2301 (bla NDM‑1 +); test: as above; format: cell-based; conditions: for imipenem MIC, K. pneumoniae T2301 (bla NDM‑1 +): compound at 128 μg/mL, median of three experiments
Procedure: as §3

IMP-1 = target: T2, IMP-1 (Serratia marcescens, UniProt P52699); test: biochemical; conditions: read-out: percentage of inhibition IMP-1
T2 construct: made in house; host or cells: E. coli
T2 sequence (P52699 19-246, looked up, species assumed): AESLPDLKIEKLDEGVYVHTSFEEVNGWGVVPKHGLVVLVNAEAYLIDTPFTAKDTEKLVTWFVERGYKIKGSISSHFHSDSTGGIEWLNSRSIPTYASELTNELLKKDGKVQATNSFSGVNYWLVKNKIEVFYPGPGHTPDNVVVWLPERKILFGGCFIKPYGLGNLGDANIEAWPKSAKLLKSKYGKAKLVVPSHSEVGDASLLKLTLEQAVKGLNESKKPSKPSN
Procedure: as §1, §2

VIM-2 = target: T3, VIM-2 (Escherichia coli, UniProt Q5U7L7); test: biochemical; conditions: read-out: percentage of inhibition VIM-2
T3 construct: made in house; host or cells: E. coli
Procedure: as §1, §2

[5] = system: E. coli SI-G001 (bla NDM‑4 +); format: cell-based; conditions: compound at 32 μg/mL; median of three experiments
Procedure: (§4) In vitro antimicrobial susceptibility testing was performed according to established standards. […] The strains used in the study were described elsewhere.

[6] = system: E. coli SI–N003 (bla NDM‑7 +); format: cell-based; conditions: compound at 32 μg/mL; median of three experiments
Procedure: as §4

[7] = system: S. marcescens SI-1591 (bla VIM‑2 +); test: microbe, parasite or virus in culture; format: cell-based
Procedure: as §4

NDM-1 [8] = target: T1, NDM-1; test: Spectrophotometric direct competition assay, imipenem hydrolysis (reporter substrate); format: biochemical; conditions: read-out: percentage of inhibition NDM-1
Procedure: as §1, §2

[9] = system: P. aeruginosa T2325 (bla IMP‑1 +); test: Imipenem MIC, broth microdilution, with fixed concentration of compound; format: cell-based; conditions: for imipenem MIC, P. aeruginosa T2325 (bla IMP‑1 +): compound at 128 μg/mL, median of three experiments
Procedure: as §4

[10] = system: K. pneumoniae 7023 (bla VIM‑1 +); test: as above; format: cell-based
Procedure: as §4

[11] = system: K. pneumoniae T2216 (bla VIM‑1 +); test: as above; format: cell-based; conditions: for imipenem MIC, K. pneumoniae T2216 (bla VIM‑1 +): compound at 128 μg/mL, median of three experiments
Procedure: as §4

[12] = system: K. pneumoniae VA-416/02 (bla VIM‑4 +); test: as above; format: cell-based
Procedure: as §4

[13] = system: A. baumannii AC-54/97 (bla IMP‑2 +); test: as above; format: cell-based
Procedure: as §4

VIM-1 = target: T4, VIM-1 (Pseudomonas aeruginosa, UniProt A0A0F7KYQ8); test: Kinetic fluorescence-based in vitro assay with fluorocillin substrate (IC50); format: biochemical
T4 construct: made in house; host or cells: E. coli
Procedure: as §1, §2

IMP-7 = IMP-7 (Pseudomonas aeruginosa, UniProt Q93AU3); test: as above; format: biochemical; conditions: 30 min preincubation
Sequence of IMP-7 (Q93AU3 entry or part of it): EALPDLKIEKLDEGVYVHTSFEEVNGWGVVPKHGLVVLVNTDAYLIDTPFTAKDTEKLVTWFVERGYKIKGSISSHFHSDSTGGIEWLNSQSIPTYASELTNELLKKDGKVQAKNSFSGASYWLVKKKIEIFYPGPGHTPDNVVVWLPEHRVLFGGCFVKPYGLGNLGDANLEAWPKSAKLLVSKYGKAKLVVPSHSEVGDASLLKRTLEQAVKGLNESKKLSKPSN
Procedure: as §1, §2

[14] = compound at 32 μg/mL, median of three experiments

| Structure (SMILES) | chemical stability (in words) [1] | IC50 (NDM-1 [2]) [µM] | imipenem MIC, K. pneumoniae T2301 (bla NDM‑1 +) [4] | inhibition at 50 µM (NDM-1 [8]) [%] | imipenem MIC, P. aeruginosa T2325 (bla IMP‑1 +) [9] | imipenem MIC, K. pneumoniae T2216 (bla VIM‑1 +) [11] | IC50 (VIM-1) [µM] | IC50 (IMP-7) [µM] | other results |
| --- | --- | --- | --- | --- | --- | --- | --- | --- | --- |
| C[C@H](CS)C(=O)N1c2ccccc2C(C)(C)[C@H]1C(N)=O [6a, (S)-1-((S)-3-Mercapto-2-methylpropanoyl)-3,3-dimethylindoline-2-carboxamide] | not very stable | 17.9 | – | – | – | – | – | – | – |
| C[C@H](CS)C(=O)N1c2ccccc2C(C)(C)[C@@H]1C(=O)NCC(=O)O [7b, ((R)-1-((S)-3-Mercapto-2-methylpropanoyl)-3,3-dimethylindoline-2-carbonyl)glycine] | – | 8 | 8 ^c μg/mL | 74 | 32 ^c μg/mL | 4 ^c μg/mL | 7.4 | 8.6 | imipenem MIC, E. coli SI-M001 (bla NDM‑1 +) [3, 14]: 64 µg/mL; inhibition at 50 µM (IMP-1): 13%; inhibition at 50 µM (VIM-2): 58%; imipenem MIC, E. coli SI-G001 (bla NDM‑4 +) [5]: 64 µg/mL; imipenem MIC, E. coli SI–N003 (bla NDM‑7 +) [6]: 64 µg/mL; imipenem MIC, S. marcescens SI-1591 (bla VIM‑2 +) [7, 14]: 16 µg/mL; imipenem MIC, K. pneumoniae 7023 (bla VIM‑1 +) [10, 14]: 128 µg/mL; imipenem MIC, K. pneumoniae VA-416/02 (bla VIM‑4 +) [12, 14]: 128 µg/mL; imipenem MIC, A. baumannii AC-54/97 (bla IMP‑2 +) [13, 14]: 128 µg/mL |
| C[C@H](CS)C(=O)N1CCC[C@@H]1C(=O)O [D-captopril, reference compound] | – | – | – | 86 | – | – | – | – | – |
| C[C@@H](O)[C@H]1C(=O)N2C(C(=O)O)=C(SCCN=CN)C[C@H]12 [imipenem, reference compound] | – | – | – | – | – | – | – | – | MIC ([3]; Escherichia coli, imipenem alone (compound: None)): 64 µg/mL (≈ 214 µM); MIC ([4]; Klebsiella pneumoniae, imipenem alone (compound: None)): 16 µg/mL (≈ 53.4 µM); MIC ([7]; Serratia marcescens, read-out: imipenem MIC, S. marcescens SI-1591 (bla VIM‑2 +)): 16 µg/mL (≈ 53.4 µM); MIC ([9]; Pseudomonas aeruginosa, read-out: imipenem MIC, P. aeruginosa T2325 (bla IMP‑1 +)): 64 µg/mL (≈ 214 µM); MIC ([10]; Klebsiella pneumoniae, read-out: imipenem MIC, K. pneumoniae 7023 (bla VIM‑1 +)): 128 µg/mL (≈ 428 µM); MIC ([11]; Klebsiella pneumoniae, read-out: imipenem MIC, K. pneumoniae T2216 (bla VIM‑1 +)): 4 µg/mL (≈ 13.4 µM); MIC ([12]; Klebsiella pneumoniae, read-out: imipenem MIC, K. pneumoniae VA-416/02 (bla VIM‑4 +)): 128 µg/mL (≈ 428 µM); MIC ([13]; Acinetobacter baumannii, read-out: imipenem MIC, A. baumannii AC-54/97 (bla IMP‑2 +)): 128 µg/mL (≈ 428 µM) |
| C[C@H](CS)C(=O)N1CCC[C@H]1C(=O)O [L-captopril, reference compound] | – | – | – | 76 | – | – | – | – | – |
| C[C@H](CS)C(=O)N1c2ccccc2C(C)(C)[C@@H]1C(N)=O [6b, (R)-1-((S)-3-Mercapto-2-methylpropanoyl)-3,3-dimethylindoline-2-carboxamide] | lower chemical stability | 4.1 | 16 ^c μg/mL | – | 64 ^c μg/mL | 4 ^c μg/mL | 0.7 | 1.8 | – |
